Our source for the IC50 values is patent US20240018150A1.

The test system of test [1] is TMD8 cells. Put plainly: Cell assay, in-vitro inhibition of TMD8 cells (CellTiter-Glo). Format: cell-based. The settings on record: Homo sapiens, 2000 cells/well, 72 hrs, read-out: TMD8 (IC50, in-vitro inhibitory test on cells). On the procedure:
(§1) Plating: The cells were suspended in serum-free medium and counted with automatic cell counter. According to the seeding density, the cell suspension was diluted to the required density. 95 μL cell (2000 cells/well) was added to each well, and incubated at 5% CO2 and 37° C.
(§2) Preparation of compound solution: The compound was prepared into a diluted solution of 1000× final concentration with dimethyl sulfoxide. The test concentrations of the compound were 10000, 3333.33, 1111.11, 370.37, 123.46, 41.15, 13.72, 4.57, 1.52, and 0.51 nM. The compound was diluted with the culture medium to prepare a compound solution of 20× final concentration. 5 uL of the compound solution was added to each well, and the same volume of dimethyl sulfoxide was added to the control well. The cells were incubated at 37° C. and 5% CO2 for 72 hrs.
(§3) Detection: The cell plate equilibrated to room temperature, 40 μl of CellTiter-Glo® reagent was added to each well, shaken for 2 min, allowed to stand for 10 min, and detected with SpectraMax Paradigm.
(§4) Data Analysis • (1) The IC50 value was calculated using GraphPad Prism 5. • (2) % Inh=(Max signal−Compound signal)/(Max signal−Min signal)×100. • (3) Max signal was a value of the positive control well in which only DMSO of the same volume with the compound solution was present. • (4) Min signal was a value of the negative control well in which only the culture medium was present.
A general note: Cellular ATP, detected with luciferase, serves as a proxy for viable cell number.

Test [2] deals with Ba/F3-BCR-BTK-C481S cells. Put plainly: Cell assay, in-vitro inhibition of Ba/F3-BCR-BTK-C481S cells (CellTiter-Glo). Format: cell-based. To be noted: 2000 cells/well, 72 hrs, read-out: Ba/F3-BCR-BTK-C481S (IC50, in-vitro inhibitory test on cells). On the procedure: as §1, §2, §3, §4
In test [3] the target is BTK kinase (Homo sapiens, UniProt Q06187). Put plainly: Inhibitory activity test on BTK kinase (electrophoretic mobility shift assay). The format is biochemical. The settings on record: Caliper EZ ReaderII, enzyme and compound 10 min at room temperature, read-out: BTK (IC50, in-vitro inhibitory test on kinase).
Sequence of BTK kinase (Q06187 whole entry): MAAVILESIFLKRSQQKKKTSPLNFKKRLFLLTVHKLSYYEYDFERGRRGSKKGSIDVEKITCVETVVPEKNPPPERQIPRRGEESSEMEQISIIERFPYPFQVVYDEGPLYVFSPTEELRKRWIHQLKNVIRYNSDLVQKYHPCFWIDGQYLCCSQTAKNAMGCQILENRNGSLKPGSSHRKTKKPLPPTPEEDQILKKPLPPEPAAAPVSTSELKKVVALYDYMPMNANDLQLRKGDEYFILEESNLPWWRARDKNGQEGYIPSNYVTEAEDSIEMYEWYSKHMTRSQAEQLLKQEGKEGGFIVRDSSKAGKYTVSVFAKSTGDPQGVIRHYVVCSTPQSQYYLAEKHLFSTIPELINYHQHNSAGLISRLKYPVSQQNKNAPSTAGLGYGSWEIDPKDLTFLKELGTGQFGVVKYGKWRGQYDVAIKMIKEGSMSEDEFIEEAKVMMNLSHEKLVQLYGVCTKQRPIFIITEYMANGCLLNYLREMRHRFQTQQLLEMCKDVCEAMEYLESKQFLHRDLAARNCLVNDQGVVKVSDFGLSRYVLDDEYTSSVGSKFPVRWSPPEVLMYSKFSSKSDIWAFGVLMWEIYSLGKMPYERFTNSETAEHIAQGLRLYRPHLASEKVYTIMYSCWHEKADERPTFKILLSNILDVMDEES

For `O=C(c1ccc(Oc2ccccc2)cc1Cl)c1c[nH]c2ncnc(N[C@@H]3CC[C@@H](CO)OC3)c12` [ARQ531, reference compound], the IC50 amounted to 111 nM in test [1] and 447 nM in test [2].

On to `O=C(c1ccc(Oc2ccccc2)cc1Cl)c1c[nH]c2nccc(N[C@H]3CC[C@H](C(=O)O)CC3)c12` [Compound I-5, (1r, 4r)-4-((3-(2-chloro-4-phenoxybenzoyl)-1H-pyrrolo[2,3-b]pyridin-4-yl)amino)cyclohexane-1-carboxylic acid], for which the IC50 in test [3] amounted to 9 nM. Still for that read-out and setting: under `O=C(c1ccc(Oc2ccccc2)cc1Cl)c1c[nH]c2nccc(N[C@H]3CC[C@@H](C(=O)O)CC3)c12` [Compound I-6, (1s, 4s)-4-((3-(2-chloro-4-phenoxybenzoyl)-1H-pyrrolo[2,3-b]pyridin-4-yl)amino)cyclohexane-1-carboxylic acid] stands 2.7 nM; under `O=C(c1ccc(Oc2ccccc2)cc1)c1c[nH]c2nccc(N[C@H]3CC[C@@H](C(=O)O)CC3)c12` [Compound I-8, (1s, 4s)-4-((3-(4-phenoxybenzoyl)-1H-pyrrolo[2,3-b]pyridin-4-yl)amino)cyclohexane-1-carboxylic acid], 7.1 nM. Same read-out and setting: for `O=C(c1ccc(Oc2ccccc2)cc1Cl)c1c[nH]c2nccc(N[C@H]3C[C@@H](C(=O)O)C3)c12` [Compound I-11, (1s, 3s)-3-((3-(2-chloro-4-phenoxybenzoyl)-1H-pyrrolo[2,3-b]pyridin-4-yl)amino)cyclobutane-1-carboxylic acid] the value was 6.2 nM. As to `O=C(c1ccc(Oc2ccccc2)cc1Cl)c1c[nH]c2nccc(NC3CCNCC3)c12` [Compound I-22, (2-chloro-4-phenoxyphenyl)(4-(piperidin-4-ylamino)-1H-pyrrolo[2,3-b]pyridin-3-yl)methanone], the IC50 in test [3] came to 9.5 nM. Still for that read-out and setting: under `O=C(c1ccc(Oc2ccccc2)cc1Cl)c1c[nH]c2nccc(N[C@@H]3CCCNC3)c12` [Compound I-23, (R)-(2-chloro-4-phenoxyphenyl)(4-(piperidin-3-ylamino)-1H-pyrrolo[2,3-b]pyridin-3-yl)methanone] stands 48 nM; under `O=C(c1ccc(Oc2ccccc2)cc1Cl)c1c[nH]c2nccc(N[C@H]3CC[C@H](O)CC3)c12` [Compound I-24, (2-chloro-4-phenoxyphenyl)(4-(((1r, 4r)-4-hydroxycyclohexyl)amino)-1H-pyrrolo[2,3-b]pyridin-3-yl)methanone], 52 nM; under `O=C(c1ccc(Oc2ccccc2)cc1Cl)c1c[nH]c2nccc(NCCOCCO)c12` [Compound I-28, (2-chloro-4-phenoxyphenyl)(4-((2-(2-hydroxyethoxy)ethyl)amino)-1H-pyrrolo[2,3-b]pyridin-3-yl)methanone], 110 nM.

With `O=C(c1ccc(Oc2ccccc2)cc1Cl)c1c[nH]c2nccc(N[C@H]3CC[C@H](CO)CC3)c12` [Compound I-30, (2-chloro-4-phenoxyphenyl)(4-(((1r, 4r)-4-(hydroxymethyl)cyclohexyl)amino)-1H-pyrrolo[2,3-b]pyridin-3-yl)methanone], the IC50 in test [3] is 95 nM. In the case of `O=C(c1ccc(Oc2ccccc2)cc1Cl)c1c[nH]c2nccc(N[C@H]3CC[C@@H](CO)CC3)c12` [Compound I-31, (2-chloro-4-phenoxyphenyl)(4-(((1s, 4s)-4-(hydroxymethyl)cyclohexyl)amino)-1H-pyrrolo[2,3-b]pyridin-3-yl)methanone], the IC50 in test [3] is 28 nM.

For the compound `O=C(c1ccc(Oc2ccccc2)cc1Cl)c1c[nH]c2nccc(N[C@@H]3CC[C@@H](CO)OC3)c12` [Compound I-32, (2-chloro-4-phenoxyphenyl)(4-(((3R, 6S)-6-(hydroxymethyl)tetrahydro-2H-pyran-3-yl)amino)-1H-pyrrolo[2,3-b]pyridin-3-yl)methanone], the IC50 in test [3] is 11 nM.

For the compound `O=C(c1ccc(Oc2ccccc2)cc1)c1c[nH]c2nccc(N[C@H]3CC[C@@H](CO)CC3)c12` [Compound I-33, (4-(((1s, 4s)-4-(hydroxymethyl)cyclohexyl)amino)-1H-pyrrolo[2,3-b]pyridin-3-yl)(4-phenoxyphenyl)methanone], the IC50 in test [3] worked out at 80 nM. Regarding `CNC(=O)[C@H]1CC[C@H](Nc2ccnc3[nH]cc(C(=O)c4ccc(Oc5ccccc5)cc4Cl)c23)CC1` [Compound I-35, (1r, 4r)-4-((3-(2-chloro-4-phenoxybenzoyl)-1H-pyrrolo[2,3-b]pyridin-4-yl)amino)-N-methylcyclohexane-1-carboxamide], the IC50 in test [3] worked out at 22 nM. Turning to `NS(=O)(=O)N1CCC(Nc2ccnc3[nH]cc(C(=O)c4ccc(Oc5ccccc5)cc4Cl)c23)CC1` [Compound I-37, 4-((3-(2-chloro-4-phenoxybenzoyl)-1H-pyrrolo[2,3-b]pyridin-4-yl)amino)piperidin-1-sulfonamide], the IC50 in test [3] came to 141 nM.

Take `CS(=O)(=O)N1CCC(Nc2ccnc3[nH]cc(C(=O)c4ccc(Oc5ccccc5)cc4Cl)c23)CC1` [Compound I-38, (2-chloro-4-phenoxyphenyl)(4-((1-(methanesulfonyl)piperidin-4-yl)amino)-1H-pyrrolo[2,3-b]pyridin-3-yl)methanone]: the IC50 in test [3] amounted to 242 nM. Same read-out and setting: under `N[C@H]1CC[C@H](Nc2ccnc3[nH]cc(C(=O)c4ccc(Oc5ccccc5)cc4Cl)c23)CC1` [Compound I-73, (4-(((1r, 4r)-4-aminocyclohexyl)amino)-1H-pyrrolo[2,3-b]pyridin-3-yl)(2-chloro-4-phenoxyphenyl)methanone] stands 16 nM. Regarding `N[C@H]1CC[C@@H](Nc2ccnc3[nH]cc(C(=O)c4ccc(Oc5ccccc5)cc4Cl)c23)CC1` [Compound I-74, (4-(((1s, 4s)-4-aminocyclohexyl)amino)-1H-pyrrolo[2,3-b]pyridin-3-yl)(2-chloro-4-phenoxyphenyl)methanone], the figures for the IC50 in test [1], in test [3] and in test [2] were 65.9 nM, 2.8 nM and 52 nM, respectively. Take `CC(=O)N[C@H]1CC[C@@H](Nc2ccnc3[nH]cc(C(=O)c4ccc(Oc5ccccc5)cc4Cl)c23)CC1` [Compound I-87, N-((1s, 4s)-4-((3-(2-chloro-4-phenoxybenzoyl)-1H-pyrrolo[2,3-b]pyridin-4-yl)amino)cyclohexyl)acetamide]: the IC50 in test [1] amounted to 114 nM; in test [2], 103 nM. As to `CN[C@H]1CC[C@@H](Nc2ccnc3[nH]cc(C(=O)c4ccc(Oc5ccccc5)cc4Cl)c23)CC1` [Compound I-89], the IC50 was found to be 97.7 nM in test [1] and 68.6 nM in test [2].
